Experimental data published in patent EP0643712B1, “SPIRO-OXETANES, PROCESS FOR PREPARING THE SAME AND MEDICAMENTS” (BOEHRINGER MANNHEIM GMBH, priority 1992, dated 1993).

Assays:
[1] = target: T1, humane rekombinante Typ II PLA2 (Homo sapiens, UniProt P14555); assay: In-vitro inhibition of PLA2 enzyme activity; format: biochemical; details: for inhibition at 1 µg/mL / inhibition at 10 µg/mL / inhibition at 100 µg/mL: read-out: PLA2 in % (Hemmung der Enzymaktivität); for PLA2 in % (Hemmung der Enzymaktivität) / inhibition at 100 µg/mL: 100 µg/ml
T1 sequence (P14555 21-144): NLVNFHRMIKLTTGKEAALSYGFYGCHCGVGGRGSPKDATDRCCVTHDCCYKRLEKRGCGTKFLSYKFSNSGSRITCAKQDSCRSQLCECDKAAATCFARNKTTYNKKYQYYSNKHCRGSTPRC
Excerpt: Als typischer Vertreter einer PLA2 wurde die humane rekombinante Typ-II-PLA2 (= synoviale PLA2) zur Testung eingesetzt.
Die Tabelle 1 enthält die prozentuale in-vitro Hemmung dieses Enzyms durch die Verbindung des Beispiels 1, einen Spiro-Oxetan-Vertreter. Das Enzym wird dosisabhängig bis zu 93 % inhibiert.

humanen Thrombozyten = assay: Inhibition of collagen-induced arachidonic acid (3H-AA) release from platelets; format: cell-based; details: Homo sapiens, Platelet, read-out: AA in % (Hemmung der Collagen induzierten Arachidonsäurefreisetzung)
Excerpt: Als weiterer Indikator einer PLA2-Inhibition gilt eine Hemmung der AA-Freisetzung aus Thrombozyten. Zu diesem Zweck werden die Thrombozyten mit ^3H-AA inkubiert. Diese zugegebene radioaktive Arachidonsäure baut sich in Membranphospholipide ein. Anschließend wird die thrombozytäre PLA2 über den Collagenrezeptor aktiviert und ^3H-AA so aus Phospholipen wieder ins Medium freigesetzt, wo sie quantifiziert werden kann.

SMILES | inhibition at 1 µg/mL [1] | inhibition at 10 µg/mL [1] | PLA2 in % (Hemmung der Enzymaktivität) [1] | inhibition at 100 µg/mL [1] | inhibition at 1 µg/mL (humanen Thrombozyten) | inhibition at 10 µg/mL (humanen Thrombozyten) | inhibition at 100 µg/mL (humanen Thrombozyten)
COc1ccc2c(c1)c(CC(=O)O)c(C)n2C(=O)c1ccc(Cl)cc1 [Indomethacin] | 0% | 10% | 52% | 52% | 6% | 18% | 23%
O=C1C=CC2(C=C1)CC1(CCC(=O)O1)O2 (centres unmarked) [Bsp. 1, 1,6-Dioxadispiro[4.1.5.1]trideca-8,11-dien-2,10-dion] | 11% | 37% | 93% | ≤ 93% | 42% | 86% | 100%
